Measured values published in ChEMBL document CHEMBL1201862, “PubChem BioAssay data set” (2004).
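The compound was tested at five concentrations on cells cultured in 96-well plates, with a 48-hour exposure period. GI50 = concentration required for 50% inhibition of growth.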 Active and inactive are the calls of the source. No stated cut-off is given here; in the data, active = GI50 up to about 1.1 µM and inactive = higher.

Experiments:
Assay in all cases: NCI tumour cell line growth inhibition, 48 h
KM12 = tested on: KM12
M14 = tested on: M14
T47D = tested on: T47D
SNB-75 = tested on: SNB-75
PC-3 = tested on: PC-3
OVCAR-4 = tested on: OVCAR-4
HOP-62 = tested on: HOP-62
NCI/ADR-RES = tested on: NCI/ADR-RES
HT-29 = tested on: HT-29
TK-10 = tested on: TK-10
U-251 = tested on: U-251
Hs-578T = tested on: Hs-578T
HCT-15 = tested on: HCT-15
MOLT-4 = tested on: MOLT-4
SF-295 = tested on: SF-295
SK-MEL-2 = tested on: SK-MEL-2
RPMI-8226 = tested on: RPMI-8226
NCI-H226 = tested on: NCI-H226
RXF 393 = tested on: RXF 393
EKVX = tested on: EKVX
DU-145 = tested on: DU-145
HCT-116 = tested on: HCT-116
UACC-257 = tested on: UACC-257
MDA-MB-231 = tested on: MDA-MB-231
CCRF-CEM = tested on: CCRF-CEM
NCI-H23 = tested on: NCI-H23
ACHN = tested on: ACHN
BT-549 = tested on: BT-549
COLO 205 = tested on: COLO 205
MDA-MB-435 = tested on: MDA-MB-435
SK-MEL-5 = tested on: SK-MEL-5
UO-31 = tested on: UO-31
NCI-H522 = tested on: NCI-H522
SN12C = tested on: SN12C
MDA-N = tested on: MDA-N
SK-OV-3 = tested on: SK-OV-3
OVCAR-5 = tested on: OVCAR-5
K562 = tested on: K562
HOP-92 = tested on: HOP-92
SW-620 = tested on: SW-620
Malme-3M = tested on: Malme-3M
OVCAR-3 = tested on: OVCAR-3
LOX IMVI = tested on: LOX IMVI
CAKI-1 = tested on: CAKI-1
HL-60 = tested on: HL-60
SF-268 = tested on: SF-268
SNB-19 = tested on: SNB-19
IGROV-1 = tested on: IGROV-1
UACC-62 = tested on: UACC-62
786-0 = tested on: 786-0
OVCAR-8 = tested on: OVCAR-8
SK-MEL-28 = tested on: SK-MEL-28
A549 = tested on: A549
MCF7 = tested on: MCF7
A498 = tested on: A498
NCI-H460 = tested on: NCI-H460
SF-539 = tested on: SF-539

O=S(=O)(O)c1ccc2c(/N=N/c3cccc4ccccc34)c(O)c(S(=O)(=O)O)cc2c1
GI50 (KM12): > 100 µM (inactive)
GI50 (M14): > 100 µM (inactive)
GI50 (T47D): > 100 µM (inactive)
GI50 (SNB-75): > 100 µM (inactive)
GI50 (PC-3): > 100 µM (inactive)
GI50 (OVCAR-4): > 100 µM (inactive)
GI50 (HOP-62): > 100 µM (inactive)
GI50 (NCI/ADR-RES): > 100 µM (inactive)
GI50 (HT-29): > 100 µM (inactive)
GI50 (TK-10): > 100 µM (inactive)
GI50 (U-251): > 100 µM (inactive)
GI50 (Hs-578T): > 100 µM (inactive)
GI50 (HCT-15): > 100 µM
GI50 (MOLT-4): > 100 µM (inactive)
GI50 (SF-295): > 100 µM (inactive)
GI50 (SK-MEL-2): > 100 µM (inactive)
GI50 (RPMI-8226): > 100 µM (inactive)
GI50 (NCI-H226): > 100 µM (inactive)
GI50 (RXF 393): > 100 µM (inactive)
GI50 (EKVX): > 100 µM (inactive)
GI50 (DU-145): > 100 µM (inactive)
GI50 (HCT-116): > 100 µM (inactive)
GI50 (UACC-257): > 100 µM (inactive)
GI50 (MDA-MB-231): > 100 µM (inactive)
GI50 (CCRF-CEM): > 100 µM (inactive)
GI50 (NCI-H23): > 100 µM (inactive)
GI50 (ACHN): > 100 µM (inactive)
GI50 (BT-549): > 100 µM (inactive)
GI50 (COLO 205): > 100 µM (inactive)
GI50 (MDA-MB-435): > 100 µM (inactive)
GI50 (SK-MEL-5): > 100 µM (inactive)
GI50 (UO-31): > 100 µM (inactive)
GI50 (NCI-H522): > 100 µM (inactive)
GI50 (SN12C): > 100 µM (inactive)
GI50 (MDA-N): > 100 µM (inactive)
GI50 (SK-OV-3): > 100 µM (inactive)
GI50 (OVCAR-5): > 100 µM (inactive)
GI50 (K562): > 100 µM (inactive)
GI50 (HOP-92): > 100 µM (inactive)
GI50 (SW-620): > 100 µM (inactive)
GI50 (Malme-3M): > 100 µM (inactive)
GI50 (OVCAR-3): > 100 µM (inactive)
GI50 (LOX IMVI): > 100 µM (inactive)
GI50 (CAKI-1): > 100 µM (inactive)
GI50 (HL-60): > 100 µM (inactive)
GI50 (SF-268): > 100 µM (inactive)
GI50 (SNB-19): > 100 µM (inactive)
GI50 (IGROV-1): > 100 µM (inactive)
GI50 (UACC-62): > 100 µM (inactive)
GI50 (786-0): > 100 µM (inactive)
GI50 (OVCAR-8): > 100 µM (inactive)
GI50 (SK-MEL-28): > 100 µM (inactive)
GI50 (A549): > 100 µM (inactive)

COc1ccc2c(=O)oc3c(OC)cc(CCN(C)C)c4c(=O)oc1c2c34 [TASPINE]
GI50 (M14): 9.31 µM (inactive)
GI50 (T47D): 9.35 µM (inactive)
GI50 (PC-3): 10.5 µM (inactive)
GI50 (MCF7): 5.86 µM (inactive)
GI50 (NCI/ADR-RES): 7.46 µM (inactive)
GI50 (A498): 10.3 µM (inactive)
GI50 (U-251): 9.68 µM (inactive)
GI50 (Hs-578T): 10.3 µM (inactive)
GI50 (MOLT-4): 6.79 µM (inactive)
GI50 (SK-MEL-2): 12.1 µM (inactive)
GI50 (NCI-H226): 24.2 µM (inactive)
GI50 (DU-145): 8.51 µM (inactive)
GI50 (MDA-MB-231): 8.55 µM (inactive)
GI50 (CCRF-CEM): 0.948 µM (active)
GI50 (NCI-H23): 9.27 µM (inactive)
GI50 (BT-549): 7.74 µM (inactive)
GI50 (COLO 205): 9.16 µM (inactive)
GI50 (MDA-MB-435): 8.32 µM (inactive)
GI50 (SK-MEL-5): 7.29 µM (inactive)
GI50 (NCI-H522): 6.76 µM (inactive)
GI50 (SN12C): 7.78 µM (inactive)
GI50 (MDA-N): 7.82 µM (inactive)
GI50 (OVCAR-5): 11.7 µM (inactive)
GI50 (OVCAR-3): 9.86 µM (inactive)
GI50 (SF-268): 7.33 µM (inactive)
GI50 (SNB-19): 8.93 µM (inactive)
GI50 (UACC-62): 8.97 µM (inactive)
GI50 (OVCAR-8): 6.93 µM (inactive)

CCOC(=O)c1c(-c2cccc(Cl)c2)c(C(=O)OC)c(C)c2sc(C=O)nc12
GI50 (KM12): 16.7 µM (inactive)
GI50 (M14): 17 µM (inactive)
GI50 (T47D): 14.8 µM (inactive)
GI50 (SNB-75): 21.6 µM (inactive)
GI50 (PC-3): 16.4 µM (inactive)
GI50 (OVCAR-4): 20 µM (inactive)
GI50 (MCF7): 17.8 µM (inactive)
GI50 (HOP-62): 13.6 µM (inactive)
GI50 (NCI/ADR-RES): 25.8 µM (inactive)
GI50 (HT-29): 21 µM (inactive)
GI50 (TK-10): 29.3 µM (inactive)
GI50 (U-251): 17.7 µM (inactive)
GI50 (NCI-H460): 19.5 µM (inactive)
GI50 (Hs-578T): 21 µM (inactive)
GI50 (HCT-15): 19.8 µM
GI50 (SF-539): 18.1 µM (inactive)
GI50 (MOLT-4): 12.8 µM (inactive)
GI50 (SF-295): 15.8 µM (inactive)
GI50 (SK-MEL-2): 16.8 µM (inactive)
GI50 (RPMI-8226): 14.1 µM (inactive)
GI50 (NCI-H226): 21.8 µM (inactive)
GI50 (RXF 393): 23.8 µM (inactive)
GI50 (EKVX): 16.6 µM (inactive)
GI50 (DU-145): 17.7 µM (inactive)
GI50 (HCT-116): 7.14 µM (inactive)
GI50 (UACC-257): 31.8 µM (inactive)
GI50 (MDA-MB-231): 15.6 µM (inactive)
GI50 (CCRF-CEM): 12.8 µM (inactive)
GI50 (NCI-H23): 51.9 µM (inactive)
GI50 (ACHN): 16.8 µM (inactive)
GI50 (BT-549): 17.3 µM (inactive)
GI50 (COLO 205): 17.5 µM (inactive)
GI50 (MDA-MB-435): 19.6 µM (inactive)
GI50 (SK-MEL-5): 14.3 µM (inactive)
GI50 (UO-31): 17.8 µM (inactive)
GI50 (NCI-H522): 16 µM (inactive)
GI50 (SN12C): 16.6 µM (inactive)
GI50 (MDA-N): 19.9 µM (inactive)
GI50 (SK-OV-3): 26.7 µM (inactive)
GI50 (OVCAR-5): 17.5 µM (inactive)
GI50 (K562): 27.5 µM (inactive)
GI50 (HOP-92): 15.7 µM (inactive)
GI50 (SW-620): 48.4 µM (inactive)
GI50 (Malme-3M): 19.3 µM (inactive)
GI50 (OVCAR-3): 15.2 µM (inactive)
GI50 (LOX IMVI): 14.3 µM (inactive)
GI50 (CAKI-1): 17.5 µM (inactive)
GI50 (HL-60): 17.7 µM (inactive)
GI50 (SF-268): 19 µM (inactive)
GI50 (SNB-19): 98.9 µM (inactive)
GI50 (IGROV-1): 17.5 µM (inactive)
GI50 (UACC-62): 15.8 µM (inactive)
GI50 (OVCAR-8): 19.8 µM (inactive)
GI50 (SK-MEL-28): 18 µM (inactive)
GI50 (A549): 49.9 µM (inactive)
